Laboratory results published in US12139481B2, “Compositions comprising macrocycle derivatives incorporating bridged macrocycles and methods of producing and using same” (Southwestern Oklahoma State University, priority 2015, dated 2024).
Like-named read-outs stand apart in the source and are kept apart here.

What was measured:
[1] = tested on: methicillin-resistant S. aureus ATCC 33591 (MRS); assay: Antibacterial broth dilution assay against MRSA (modified CLSI); assay type: cell-based, Staphylococcus aureus; details: for MRSa IC50 / IC50: in vitro; for IC50: converted with molecular weight; for X more potent than ciprofloxacen: molar IC50 ratio versus ciprofloxacen
Summary of the method: (§1)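 Growth read by optical density at 530 nm, duplicate wells, 1% final DMSO. Staphylococcus spp.: Mueller-Hinton pH 7.3, 5.0×10^5 CFU/ml, 35 °C for 16-20 h; Candida spp.: RPMI/dextrose/glutamine/MOPS pH 6.0, 1.5×10^3 CFU/ml, 35 °C for 46-50 h. Reported values are 50% inhibition versus controls, no-growth MIC, and killing MFC/MBC.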

[2] = tested on: Staphylococcus aureus ATCC 29213; assay: Antibacterial broth dilution assay against S. aureus (modified CLSI); assay type: cell-based; details: for S. aureus IC50 / IC50: in vitro; for IC50: converted with molecular weight; for X more potent than ciprofloxacen: molar IC50 ratio versus ciprofloxacen
Summary of the method: as §1

[3] = tested on: Plasmodium falciparum W2 clone (Indochina, chloroquine-resistant); assay: In vitro antimalarial assay, chloroquine-resistant W2 clone; assay type: cell-based; details: W2 clone; for IC50: converted with molecular weight, read-out: P. falciparum W2 IC50; for X more potent than chloroquine: molar IC50 ratio versus chloroquine
Summary of the method: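 Parasites grown in type A human RBCs; assay run on infected cell suspension at 2% parasitemia and 2% hematocrit, in duplicate at several concentrations. IC50 taken from dose curves, per the Makler method, with DMSO as vehicle; Vero cytotoxicity run in parallel to derive a selectivity index.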

[4] = tested on: Cryptococcus neoformans ATCC 90113; assay: Antimicrobial microdilution assay against Cryptococcus neoformans (modified CLSI/NCCLS, optical density); assay type: cell-based; details: for X more potent than Amphotericin B: C. neoformans, ratio of molar IC50 to Amphotericin B; for C. neoformans IC50 / IC50: in vitro, C. neoformans ATCC 90113; for IC50: read-out: C. neoformans IC50 (mol/L)
Summary of the method: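 Fungicidal endpoint taken by subculturing 5 μL from each clear well onto agar, MFC being the lowest concentration with no regrowth. Duplicate wells of serially diluted compound (20% DMSO/saline) in RPMI pH 6.0, read at 630 nm pre- and post-incubation, under modified CLSI methods. IC50 means 50% growth inhibition against controls.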

| Structure (SMILES) | MRSa IC50 [1] [µg/mL] | IC50 ([1]; HCl salt) [µM] | X more potent than ciprofloxacen [1] | S. aureus IC50 [2] [µg/mL] | IC50 ([2]; HCl salt) [µM] | X more potent than ciprofloxacen [2] | P. falciparum W2 IC50 [3] [µg/mL] | IC50 [3] [µM] | X more potent than chloroquine [3] | X more potent than Amphotericin B [4] | C. neoformans IC50 [4] [µg/mL] | IC50 ([4]; HCl salt) [µM] | IC50 [1] [µM] | IC50 [2] [µM] | IC50 [4] [µM] |
| --- | --- | --- | --- | --- | --- | --- | --- | --- | --- | --- | --- | --- | --- | --- | --- |
| CN1CCCN2CCN(CCCN(Cc3cccc(CN4CCCN5CCN(C)CCCN(CC5)CC4)c3)CC2)CC1.Cl.Cl.Cl.Cl.Cl.Cl.Cl.Cl [TJS04, m-CB-cyclams HCl salt] | 7.050 | 7.24 | 0.03 | 9.280 | 9.53 | 0.03 | 0.6558 | 0.75 | 0.90 | 0.61 | 0.380 | 0.39 |  |  |  |
| c1cc(CN2CCCN3CCCN(CCCNCC3)CC2)ccc1CN1CCCN2CCCN(CCCNCC2)CC1 [SLK10, p-H2PBCyclams] | 2.500 |  | 0.05 | 1.410 |  | 0.11 | 1.7920 | 3.07 | 0.22 | 0.01 | 15.010 |  | 4.29 | 2.42 | 25.8 |
| CC(=O)[O-].F[P-](F)(F)(F)(F)F.[Ni+2].c1ccc(CN2CCCN3CCCN(CCCN(Cc4ccccc4)CC3)CC2)cc1 [DJD22, [Ni(Bn2PBCyclam)(OAc)]PF6] | 4.620 |  | 0.03 | 4.630 |  | 0.04 | 0.9060 | 1.33 | 0.51 | 0.03 | 5.240 |  | 6.76 | 6.78 | 7.67 |
| [Cl][Mn-2]([Cl])([Cl])[Cl].[Mn+2].c1ccc(CN2CCCN3CCCN(CCCN(Cc4ccccc4)CC3)CC2)cc1 [BME08, [Mn(Bn2PBCyclam)][MnCl4]] | 0.800 |  | 0.18 | 0.800 |  | 0.23 | 0.1206 | 0.179 | 3.78 | 0.13 | 1.203 |  | 1.19 | 1.19 | 1.79 |
| c1ccc(CN2CCN3CCCN(CC2)CCN(Cc2ccccc2)CC3)cc1 [AW009, Bn2PBCyclen] | 1.050 |  | 0.08 | 2.010 |  | 0.05 | 1.5560 | 3.96 | 0.17 | 0.01 | 6.740 |  | 2.68 | 5.12 | 17.2 |
